In US6906090B1, “Compositions and methods for treating mycobacterial diseases” (AstraZeneca AB, priority 1998, dated 2005):

Test system: M. tuberculosis
Test: BACTEC radiometric MIC test for bactericidal activity against M. tuberculosis
Assay type: cell-based
Settings: Mycobacterium tuberculosis, read-out: minimum inhibitory concentration (MIC)

| Structure (SMILES) | MIC [µg/mL] |
| --- | --- |
| CCCCCCCCCCCCN1C(=O)C(=O)c2cccc(-c3ccccc3)c21 [Example 19, 1-Dodecyl-7-phenyl-1H-indole-2,3-dione] | ≤ 20 |
| CCCCN1C(=O)C(=O)c2cccc(-c3ccccc3)c21 [Example 16, 1-Butyl-7-phenyl-1H-inidole-2,3-dione] | ≤ 20 |
| O=C1Cc2cc(C3CCCCC3)ccc2N1CCC1CCN(Cc2ccccc2)CC1 [Example 4, 5-Cyclohexyl-1,3-dihydro-1-[2-[1-(phenylmethyl) 4-piperidinyl]ethyl]-2H-2H-indol-2-one] | ≤ 20 |
| CCCCCCCCCCCN1C(=O)C(=O)c2cccc(-c3ccccc3)c21 [Example 14, 1-Undececyl-7-phenyl-1-H-indole-2,3-dione] | ≤ 20 |
| O=C1C(=O)N(CCN2CCN(Cc3ccccc3)CC2)c2ccc(N3CCCCC3)cc21 [Example 8, 5-(1-Piperidinyl)-1-[2-[4-(phenylmethyl)-1-piperazinyl]ethyl]-1H-indole-2,3-dione] | ≤ 20 |
| CC(C)CN1C(=O)C(=O)c2cccc(-c3ccccc3)c21 [Example 17, 1-(2-Methylpropyl)-7-phenyl-1H-indole-2,3-dione] | ≤ 20 |
| CCN(CCCCN1C(=O)C(=O)c2ccccc21)Cc1ccccc1 [Example 5, 1-(4-(N-Ethyl-N-phenylmethylamino)butyl)-1H-indole-2,3-dione] | ≤ 20 |
| CCCCCCCCCCN1C(=O)C(=O)c2cccc(-c3ccccc3)c21 [Example 13, 1-Decyl-7-phenyl-1-H-indole-2,3-dione] | ≤ 20 |
| CCCCCN1C(=O)C(=O)c2cccc(-c3ccccc3)c21 [Example 15, 1-Pentyl-7-phenyl-1H-indole-2,3-dione] | ≤ 20 |
| CCN(CCCCCN1C(=O)C(=O)c2cc(C3CCCCC3)ccc21)Cc1ccccc1 [Example 3, 5-Cyclohexyl-1-(5-(N-ethyl-N-phenylmethylamino)pentyl)-1H-indole-2,3-dione] | ≤ 20 |
| CCCCCCCCN1C(=O)C(=O)c2cccc(-c3ccccc3)c21 [Example 12, 1-Octyl-7-phenyl-1-H-indole-2,3-dione] | ≤ 20 |
| O=C1C(=O)N(CCCCBr)c2ccc(C3CCCCC3)cc21 [Example 9, 1-(4-Bromobutyl)-5-cyclohexyl-1H-indole-2,3-dione] | ≤ 20 |
| O=C1C(=O)N(CCC2CCN(Cc3ccccc3)CC2)c2ccc(C3CCCCC3)cc21 [Example 1, 5-Cyclohexyl-1-[2-[1-(phenylmethyl)-4-piperidinyl]ethyl]-1H-indole-2,3-dione] | ≤ 20 |
| CCCCCCCN1C(=O)C(=O)c2cccc(-c3ccccc3)c21 [Example 11, 1-Heptyl-7-phenyl-1H-indole-2,3-dione] | ≤ 20 |
| O=C1C(=O)N(CCCCBr)c2c1cccc2-c1ccccc1 [Example 20, 1-(4-Bromobutyl)-7-phenyl-1H-indole-2,3-dione] | ≤ 20 |
| O=C1C(=O)N(CCN2CCN(Cc3ccccc3)CC2)c2c1cccc2C1CCCCCC1 [Example 2, 7-Cycloheptyl-1-[2-[4-(phenylmethyl)-1-piperazinyl]ethyl]-1H-indole-2,3-dione] | ≤ 20 |
| CCCCCCCCCN1C(=O)C(=O)c2cccc(-c3ccccc3)c21 [Example 10, 1-Nonyl-7-phenyl-1H-indole-2,3-dione] | ≤ 20 |
| O=C1C(=O)N(CCN2CCN(Cc3ccccc3)CC2)c2ccc(-c3ccccc3)cc21 [Example 6, 5-Phenyl-1-[2-[4-(phenylmethyl)-1-perazinyl]ethyl]-1H-indole-2,3-dione] | ≤ 20 |
| CCCCCCN1C(=O)C(=O)c2cccc(-c3ccccc3)c21 [Example 18, 1-Hexyl-7-phenyl-1-indole-2,3-dione] | ≤ 20 |
| O=C1C(=O)N(CCN2CCN(Cc3ccccc3)CC2)c2c1cccc2C1CCCC1 [Example 7, 7-Cyclopentyl-1-[2-[4-(phenylmethyl)-1-piperazinyl]ethyl]-1H-indole-2,3-dione] | ≤ 20 |
